# Data taken from patent publication US6329163A, “Assays for detecting β-secretase inhibition” (Elan Pharmaceuticals, Inc., priority 1998, dated 2001).
# Legend:
# β-secretase [1] = molecular target: T1, β-secretase (Homo sapiens, UniProt P56817); test: β-secretase assay in the presence of common protease inhibitors (MBP-C125 cleavage, SW-192 ELISA); assay type: biochemical; conditions: for IC50: Max Conc not given
# T1 construct: purified from a natural source, such as human brain tissue or human 293 cells; endogenous in cells
# T1 sequence (P56817 46-501): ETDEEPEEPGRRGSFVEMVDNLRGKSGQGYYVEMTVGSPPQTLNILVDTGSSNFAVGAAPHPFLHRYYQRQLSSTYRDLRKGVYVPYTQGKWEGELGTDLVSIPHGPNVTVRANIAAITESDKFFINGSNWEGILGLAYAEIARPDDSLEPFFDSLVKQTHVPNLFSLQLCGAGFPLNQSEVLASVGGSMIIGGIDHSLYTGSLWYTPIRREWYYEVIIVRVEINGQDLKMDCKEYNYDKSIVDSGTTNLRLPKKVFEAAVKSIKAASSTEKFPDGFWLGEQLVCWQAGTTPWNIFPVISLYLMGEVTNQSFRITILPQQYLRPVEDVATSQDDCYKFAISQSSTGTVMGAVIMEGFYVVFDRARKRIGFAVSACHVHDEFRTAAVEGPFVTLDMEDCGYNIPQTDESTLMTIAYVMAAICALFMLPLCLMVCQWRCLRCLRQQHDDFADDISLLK
# APP = test: Proteolytic activity of β-secretase as a function of pH; assay type: biochemical, human
# β-secretase [2] = molecular target: T1, β-secretase; test: Binding of substantially purified β-secretase activity to immobilized lectins; conditions: immobilized lectin; Table 2
# Description: Glycosylation of β-secretase has been investigated using various immobilized lectins, and ability of substantially purified β-secretase activity to bind to them was determined. […] A "-" sign signifies less than 20% binding, "+" between […] binding, "++" between 50-75% binding, and "+++" >75% binding.
Molecule,inhibition of β-secretase activity (in words) (β-secretase [1]),IC50 (β-secretase [1]; pH 5.5) [mM],further results
c1cnc2c(c1)ccc1ncccc12 [m-phenanthroline],also does so,7,–
c1cnc2c(c1)ccc1cccnc12 [o-phenanthroline],inhibits poorly,7,–
CCCCC(NC(=O)C=[N+]=[N-])C(=O)OC (stereo not drawn) [diazoacetylnorleucylmethyl ester],–,> 5,–
"O=c1oc(Cl)c(Cl)c2ccccc12 [3,4-dichloroisocoumarin]",–,–,"inhibition at 500 µM (β-secretase [1]; Max Conc 0.5 mM, pH 5.5): < 25%"
"β-secretase: enzyme which cleaves APP at the amino-terminus of β-amyloid peptide, purified from human 293 cells or human brain",–,–,pH of peak proteolytic activity (APP): 5 to 5.5; proteolytic activity (APP; pH 7.5 and above): very low activity
"peanut (PNA): lectin (protein, UniProt P02872 24-273, looked up) Galactose-binding lectin: AETVSFNFNSFSEGNPAINFQGDVTVLSNGNIQLTNLNKVNSVGRVLYAMPVRIWSSATGNVASFLTSFSFEMKDIKDYDPADGIIFFIAPEDTQIPAGSIGGGTLGVSDTKGAGHFVGVEFDTYSNSEYNDPPTDHVGIDVNSVDSVKTVPWNSVSGAVVKVTVIYDSSTKTLSVAVTNDNGDITTIAQVVDLKAKLPERVKFGFSASGSLGGRQIHLIRSWSFTSTLITTTRRSIDNNEKKIMNMASA",–,–,β-Secretase Binding (β-secretase [2]): + (between 24-40% binding)
